# Assay: Inhibition of farnesyltransferase
row,SMILES,pIC50
1,N#Cc1ccc(Cn2cncc2CN[C@@H]2CCN(c3ccccc3)C2=O)cc1,6.69
2,N#Cc1ccc(Cn2cncc2CCN[C@@H]2CCN(c3ccccc3)C2=O)cc1,6.92
3,N#Cc1ccc(Cn2cncc2CCN[C@H]2CCN(CCc3ccccc3)C2=O)cc1,6.61
4,N#Cc1ccc(Cn2cncc2CNC2CCN(C(=O)c3cncc(Br)c3)C2=O)cc1 (centres undefined),7.37
5,N#Cc1ccc(Cn2cncc2CNC2CCN(c3ccccc3Cl)C2=O)cc1 (centres undefined),8.82
6,N#Cc1ccc(Cn2cncc2CNC2CCN(c3cccc(Cl)c3)C2=O)cc1 (centres undefined),8.08
7,N#Cc1ccc(Cn2cncc2CNC2CCN(c3ccc(Cl)cc3)C2=O)cc1 (centres undefined),7.68
8,N#Cc1ccc(Cn2cncc2CNC2CCN(Cc3ccccc3Cl)C2=O)cc1 (centres undefined),8.28
9,N#Cc1ccc(Cn2cncc2CNC2CCN(Cc3ccc(Cl)cc3)C2=O)cc1 (centres undefined),7.6
10,N#Cc1ccc(Cn2cncc2CNC2CCN(c3cccnc3)C2=O)cc1 (centres undefined),7.07
11,N#Cc1ccc(Cn2cncc2CNC2CCN(c3ccncc3)C2=O)cc1 (centres undefined),7.37
12,N#Cc1ccc(Cn2cncc2CNC2CCN(C(=O)c3ccccc3)C2=O)cc1 (centres undefined),6.96
13,N#Cc1ccc(Cn2cncc2CNC2CCN(C(=O)c3cccc4ccccc34)C2=O)cc1 (centres undefined),7.96
14,N#Cc1ccc(Cn2cncc2CNC2CCN(C(=O)c3ccccc3Cl)C2=O)cc1 (centres undefined),7.19
15,N#Cc1ccc(Cn2cncc2CNC2CCN(C(=O)c3cccc(Cl)c3)C2=O)cc1 (centres undefined),7.57
16,N#Cc1ccc(Cn2cncc2CNC2CCN(C(=O)c3ccc(Cl)cc3)C2=O)cc1 (centres undefined),7.05
17,N#Cc1ccc(Cn2cncc2CNC2CCN(C(=O)c3cccnc3)C2=O)cc1 (centres undefined),5.7
18,N#Cc1ccc(Cn2cncc2CNC2CCN(C(=O)c3cccnc3N)C2=O)cc1 (centres undefined),6.01
19,N#Cc1ccc(Cn2cncc2CNC2CCN(C(=O)c3cccnc3O)C2=O)cc1 (centres undefined),5.17
20,COc1ncccc1C(=O)N1CCC(NCc2cncn2Cc2ccc(C#N)cc2)C1=O (centres undefined),6.82
21,N#Cc1ccc(Cn2cncc2CNC2CCN(C(=O)c3cccnc3S)C2=O)cc1 (centres undefined),5.54
22,CSc1ncccc1C(=O)N1CCC(NCc2cncn2Cc2ccc(C#N)cc2)C1=O (centres undefined),7.08
23,CCSc1ncccc1C(=O)N1CCC(NCc2cncn2Cc2ccc(C#N)cc2)C1=O (centres undefined),8.32
24,CCCN(Cc1cncn1Cc1ccc(C#N)cc1)C1CCN(Cc2ccccc2)C1=O (centres undefined),7.23

row,SMILES,pIC50
1,N#Cc1ccc(Cn2cncc2CN(Cc2ccccc2)C2CCN(Cc3ccccc3)C2=O)cc1 (centres undefined),7.17
2,N#Cc1ccc(Cn2cncc2CN(CCc2ccccc2)C2CCN(Cc3ccccc3)C2=O)cc1 (centres undefined),7.29
3,N#Cc1ccc(Cn2cncc2CN(CCCCc2ccccc2)C2CCN(Cc3ccccc3)C2=O)cc1 (centres undefined),7.38
4,N#Cc1ccc(Cn2cncc2CN(c2ccccn2)C2CCN(Cc3ccccc3)C2=O)cc1 (centres undefined),7.28
5,CC(C)(C)OC(=O)NCCCN(Cc1cncn1Cc1ccc(C#N)cc1)C1CCN(Cc2cccc(Cl)c2)C1=O (centres undefined),8.89
6,N#Cc1ccc(Cn2cncc2CN(CCCN)C2CCN(Cc3cccc(Cl)c3)C2=O)cc1 (centres undefined),8.12
7,Cc1ccccc1-c1cc(C(OCc2nc(-c3ccc(Cl)cc3)cs2)c2cncn2C)ccc1C#N (centres undefined),7.53
8,COC(=O)c1ccc(COC(c2ccc(C#N)c(-c3ccccc3C(F)(F)F)c2)c2cncn2C)nc1 (centres undefined),8.04
9,Cn1cncc1C(OCc1ccc(C#N)c(N2CCOCC2)n1)c1ccc(C#N)c(-c2ccccc2C(F)(F)F)c1 (centres undefined),8.88
10,Cc1ccccc1-c1cc(C(OCc2ccc(OC(F)(F)F)cc2)c2cncn2C)ccc1C#N (centres undefined),7.79
11,Cc1ccccc1-c1cc(C(OCc2ccc(C(C)C)cc2)c2cncn2C)ccc1C#N (centres undefined),7.29
12,Cc1ccccc1-c1cc(C(OCc2cccc(I)c2)c2cncn2C)ccc1C#N (centres undefined),7.69
13,Cc1ccc(COC(c2ccc(C#N)c(-c3ccccc3C)c2)c2cncn2C)cc1 (centres undefined),7.26
14,Cc1ccccc1-c1cc(C(OCc2cccc(OC(F)(F)F)c2)c2cncn2C)ccc1C#N (centres undefined),8.08
15,Cc1ccccc1-c1cc(C(OCc2ccc(C(F)(F)F)cc2)c2cncn2C)ccc1C#N (centres undefined),7.92
16,Cc1ccccc1-c1cc(C(OCc2ccc(C(C)(C)C)cc2)c2cncn2C)ccc1C#N (centres undefined),7.06
17,COC(=O)c1cccc(COC(c2ccc(C#N)c(-c3ccccc3C)c2)c2cncn2C)c1 (centres undefined),7.21
18,Cn1cncc1C(OCc1ccc(C#N)c(NCc2cccc(F)c2)n1)c1ccc(C#N)c(-c2ccccc2C(F)(F)F)c1 (centres undefined),8
19,Cn1cncc1C(OCc1ccc(C#N)cc1)c1ccc(C#N)c(-c2ccccc2C=O)c1 (centres undefined),8.72
20,Cc1cccc(COC(c2ccc(C#N)c(-c3ccccc3C)c2)c2cncn2C)c1 (centres undefined),7.21
21,Cc1ccccc1-c1cc(C(OCc2cccc3ccccc23)c2cncn2C)ccc1C#N (centres undefined),7.76
22,Cc1ccccc1-c1cc(C(OCc2cccc(Cl)c2)c2cncn2C)ccc1C#N (centres undefined),7.72
23,Cc1cccc(-c2cc(C(OCc3ccc(C#N)cc3)c3cncn3C)ccc2C#N)c1C (centres undefined),8.67
24,Cn1cncc1C(OCc1ccc(C(F)(F)F)c(F)c1)c1ccc(C#N)c(-c2ccccc2C(F)(F)F)c1 (centres undefined),8.21

row,SMILES,pIC50
1,Cc1ccccc1-c1cc(C(OCc2c(Cl)cccc2Cl)c2cncn2C)ccc1C#N (centres undefined),7.09
2,Cc1ccccc1-c1cc(C(OCc2ccc(C#N)cc2)c2cncn2C)ccc1C#N (centres undefined),8.39
3,Cn1cncc1C(OCc1ccc(Cl)c(Cl)c1)c1ccc(C#N)c(-c2ccccc2C(F)(F)F)c1 (centres undefined),8.76
4,Cc1ccccc1-c1cc(C(OCc2ccc(Br)cc2)c2cncn2C)ccc1C#N (centres undefined),7.92
5,CC(=O)N1CCN(c2nc(COC(c3ccc(C#N)c(-c4ccccc4C(F)(F)F)c3)c3cncn3C)ccc2C#N)CC1 (centres undefined),8.58
6,Cn1cncc1C(OCc1ccc(C#N)cc1)c1ccc(C#N)c(-c2cccc(Cl)c2Cl)c1 (centres undefined),8.82
7,Cc1ccccc1-c1cc(C(OCc2ccc(I)cc2)c2cncn2C)ccc1C#N (centres undefined),7.88
8,Cn1cncc1C(OCc1ccc(C#N)c(N2CCC(CO)CC2)n1)c1ccc(C#N)c(-c2ccccc2C(F)(F)F)c1 (centres undefined),8.74
9,Cn1cncc1C(OCc1ccc(C#N)c(NCC2CCCO2)n1)c1ccc(C#N)c(-c2ccccc2C(F)(F)F)c1 (centres undefined),8.17
10,Cc1ccccc1-c1cc(C(OCc2ccc(-c3ccccc3)cc2)c2cncn2C)ccc1C#N (centres undefined),7.88
11,Cn1cncc1C(OCc1ccc(C#N)c(N2CCC[C@@H]2C(=O)O)n1)c1ccc(C#N)c(-c2ccccc2C(F)(F)F)c1 (some centres undefined),8.44
12,Cc1ccccc1-c1cc(C(OCc2ccc([N+](=O)[O-])cc2)c2cncn2C)ccc1C#N (centres undefined),8.12
13,Cn1cncc1C(OCc1ccc(C#N)c(N2CCN(CCO)CC2)n1)c1ccc(C#N)c(-c2ccccc2C(F)(F)F)c1 (centres undefined),8.88
14,Cn1cncc1C(OCc1ccc(C#N)cc1)c1ccc(C#N)c(-c2ccccc2CO)c1 (centres undefined),8.25
15,Cc1ccccc1-c1cc(C(OCc2cccc3cccnc23)c2cncn2C)ccc1C#N (centres undefined),7.22
16,Cn1cncc1C(OCc1ccc(C#N)c(N2CCCC(O)C2)n1)c1ccc(C#N)c(-c2ccccc2C(F)(F)F)c1 (centres undefined),8.88
17,Cn1cncc1C(OCc1ccc(C#N)c(N2CCC(O)C2)n1)c1ccc(C#N)c(-c2ccccc2C(F)(F)F)c1 (centres undefined),8.45
18,Cc1ccccc1-c1cc(C(OCc2ccc(Cl)cc2)c2cncn2C)ccc1C#N (centres undefined),7.95
19,Cc1ccccc1-c1cc(C(OCc2ccccc2)c2cncn2C)ccc1C#N (centres undefined),7.07
20,N#Cc1ccc(Cn2cncc2CCN[C@@H]2CCN(CCc3ccccc3)C2=O)cc1,6.42
21,COc1ccc(COC(c2ccc(C#N)c(-c3ccccc3C)c2)c2cncn2C)cc1 (centres undefined),7.22
22,Cc1ccccc1-c1cc(C(OCc2ccccc2C#N)c2cncn2C)ccc1C#N (centres undefined),7.2
23,Cn1cncc1C(OCc1ccc(C#N)c(NCCc2ccccc2)n1)c1ccc(C#N)c(-c2ccccc2C(F)(F)F)c1 (centres undefined),8.04
24,CN1CCN(c2nc(COC(c3ccc(C#N)c(-c4ccccc4C(F)(F)F)c3)c3cncn3C)ccc2C#N)CC1 (centres undefined),8.92

row,SMILES,pIC50
1,Cc1ccccc1-c1cc(C(OCc2ccccc2Cl)c2cncn2C)ccc1C#N (centres undefined),7.31
2,Cc1ccccc1COC(c1ccc(C#N)c(-c2ccccc2C)c1)c1cncn1C (centres undefined),7.26
3,Cn1cncc1C(OCc1ccc(C#N)cc1)c1ccc(C#N)c(-c2ccccc2C(F)(F)F)c1 (centres undefined),9.09
4,Cc1ccccc1-c1cc(C(OCc2cnc(Cl)c(Cl)c2)c2cncn2C)ccc1C#N (centres undefined),7.82
5,Cn1cncc1C(OCc1ccc(C#N)c(NCC2CCOC2)n1)c1ccc(C#N)c(-c2ccccc2C(F)(F)F)c1 (centres undefined),8.11
6,CC(=O)NC1CCN(c2nc(COC(c3ccc(C#N)c(-c4ccccc4C(F)(F)F)c3)c3cncn3C)ccc2C#N)C1 (centres undefined),8.76
7,Cn1cncc1C(OCc1ccc(F)c(C(F)(F)F)c1)c1ccc(C#N)c(-c2ccccc2C(F)(F)F)c1 (centres undefined),8.38
8,Cc1ccccc1-c1cc(C(OCc2cccc(Br)c2)c2cncn2C)ccc1C#N (centres undefined),7.88
9,Cc1ccccc1-c1cc(C(OCc2cccc(F)c2)c2cncn2C)ccc1C#N (centres undefined),7.42
10,Cc1ccccc1-c1cc(C(OCc2ccc(F)cc2)c2cncn2C)ccc1C#N (centres undefined),7.49
11,Cc1ccccc1-c1cc(C(OCc2cc(Cl)cc(Cl)c2)c2cncn2C)ccc1C#N (centres undefined),7.72
12,Cc1ccccc1-c1cc(C(OCc2cc(Cl)nc(Cl)c2)c2cncn2C)ccc1C#N (centres undefined),7.88
13,Cc1ccccc1-c1cc(C(OCc2ccccc2[N+](=O)[O-])c2cncn2C)ccc1C#N (centres undefined),7.48
14,Cn1cncc1C(OCc1ccc(C#N)c(N2CCC[C@@H]2CO)n1)c1ccc(C#N)c(-c2ccccc2C(F)(F)F)c1 (some centres undefined),8.69
15,Cc1ccccc1-c1cc(C(OCc2ccc(Cl)c(Cl)c2)c2cncn2C)ccc1C#N (centres undefined),7.56
16,Cn1cncc1C(OCc1ccc(C#N)cc1)c1ccc(C#N)c(-c2cccc3ccccc23)c1 (centres undefined),9.69
17,N#Cc1ccc(Cn2cncc2CCN[C@H]2CCN(c3ccccc3)C2=O)cc1,6.55
18,N#Cc1ccc(Cn2cncc2CN[C@H]2CCN(CCc3ccccc3)C2=O)cc1,6.63
19,Cc1ccccc1-c1cc(C(OCc2ccccc2F)c2cncn2C)ccc1C#N (centres undefined),7.15
20,N#Cc1ccc(Cn2cncc2CN[C@H]2CCN(c3ccccc3)C2=O)cc1,7.13
21,N#Cc1ccc(Cn2cncc2CCN[C@@H]2CCN(Cc3ccccc3)C2=O)cc1,6.6
22,N#Cc1ccc(Cn2cncc2CCN[C@H]2CCN(Cc3ccccc3)C2=O)cc1,6.56

# From ChEMBL document CHEMBL1795312, “Insights into the structural requirements of farnesyltransferase inhibitors as potential anti-tumor agents based on 3D-QSAR CoMFA and CoMSIA models” (Eur J Med Chem, 2008)
